Measured values reported in patent US20120328605A1, “COMPOSITIONS AND USES” (priority 2010, published 2012).
Where no end group is shown, it is not given here. The star is where a group is joined. Pam3Cys = N-terminal lipid (lipidation), CCCCCCCCCCCCCCCC(=O)N[C@@H](CSCC(COC(=O)CCCCCCCCCCCCCCC)OC(=O)CCCCCCCCCCCCCCC)C(=O)*

How the values were obtained:
Lineage-CD11b+ monocytes = assay: Monocyte analysis and counting after adjuvant injection in mice; format: in vivo, C57BL/6 mice
Procedure: (§1) 24-Hours after injection of the TLR adjuvants, peripheral blood was drawn from C57BL/6 mice via cardiac puncture with lithium-heparin as anticoagulant. Red blood cell lysis was performed twice on pooled blood with Ammonium Chloride-based Buffer (Sigma, Steinheim, Germany) and cells were counted with the EasyCount™ System (Immunicon). […] Cells were finally washed three times and fixed for 15 min. with a 2% paraformaldehyde solution in PBS. Fluorescence minus one (FMO) controls were always included in the assays for fluorescent compensation setting. Samples were acquired on a flow cytometer (BD FACSCanto II) and data analyzed with the FACSDiva software (BD Biosciences). Monocytes were identified by their Side/Forward scatter properties and gated as CD3-/CD45R/B220-/Ly-6G-/NK1.1-(Lineage-)/CD11b+ cells. CD11b+ monocyte frequency was reported as a percentage of the total cells excluding debris.
as §1, with “24 hours” for “24-Hours”, “each immunomodulator,” for “the TLR adjuvants,”, “min” for “min.”, “monocytes” for “monocyte”

APPSwe/PS1 mice = assay: T-water maze; format: in vivo; conditions: Example 21: twelve weekly injections; CRX527, CRX601 20 μg i.p., 3D MPL 50 μg i.p., AS01B 1/10th human dose i.m.; FIG. 24
Procedure: Five groups of APPSwe/PS1 mice received one a week for a period of 12 weeks the following treatment: • Gr1: APPSwe/PS1+NaCl 0.9% n(=20), i.p. injections • Gr4: APPSwe/PS1+CRX527 (20 μg/mouse, 130 μl, n=10), i.p. injections • Gr5: […] (50 μg/mouse, 130 μl, n=10), i.p. injections • Gr8 APPSwe/PS1+AS15 ( 1/10th of human dose, 50 μl, n=10), i.m. injections • Gr9: APPSwe/PS1+AS01B ( 1/10th of human dose, 50 μl, n=10), i.m. injections
Mice were tested during the “light on” phase of the day. Behavioral experimenter was blinded to the genetic and treatment status of animals. To assess hippocampal-dependent spatial learning and memory, mice were trained in the T-water maze task. In this paradigm, we evaluate the mouse's ability to remember the spatial location of submerged platform. The T-maze apparatus (length of stem, 64 cm; length of arms, 30 cm; width, 12 cm; height of walls, 16 cm) was made of clear fiberglass and filled with water (23±1° C.) at a height of 12 cm. A platform (11×11 cm) was placed at the end of the target arm and was submerged 1 cm below the surface. The acquisition phase allows to evaluate animals for left-right spatial learning. During the first two trials, platforms were placed on each arms of the maze to test the spontaneous turning preference of the mouse. After these two trials, the least chosen arm was reinforced by the escape platform. The mice were placed in the stem of the T-maze and choose to swim either left or right until they found the submerged platform and escape to it, to a maximum of 60 s. After reaching the platform, the mice remained on it for 20 s and then were immediately placed back in the maze. […] Repeated trials were presented on the same day up to a maximum of 48 trials. A rest period of at least 10-15 min intervened between each block of 10 trials. A mouse was considered to have learned the task when it made no errors in a block of five consecutive trials. […] The number of trials to reach the criterion (five of five correct choices made on consecutive trials) was measured as well as the latency to find the escape platform.

BV2 microglia cells = assay: In vitro phagocytosis of Aβ1-42 in BV2 cells, Western blot; format: cell-based, mouse; conditions: 5 μg/mL cytochalasin D; FIG. 16
Procedure: For total Aβ detection, 10-30 μg of cell extracts were separated on a precast 10-20% SDS polyacrylamide Tris-Tricine gel (Bio-Rad, Canada). Separated proteins were then transferred onto polyvinylidene fluoride (PVDF) membranes (PerkinElmer, Canada). Membrane were incubated in DPBS (Gibco, USA) at 90° C. for 10 min. Membrane were then incubated for 1 hour in blocking solution, which consist in TBS-T (50 mM Tris-HCl pH 8,0; 150 mM NaCl; 0.05% Tween 20) supplemented with 1% BSA (Sigma, Canada) and 5% non-fat dry milk, and probed for 16 hours at 4° C. with a mouse anti-amyloid beta protein monoclonal antibody clone 6E10 (Covance, USA) diluted to 1:1000 in TBS-T supplemented with 5% BSA and 0.02% sodium azide. Membranes were washed once for 15 min and three times for 5 min in TBS-T at room temperature. […] Films were digitalized using a HP Scanjet 4370 (HP) and signal intensity was measured using ImageJ (version 1.44p, NIH).
Aβ specific antibodies stimulate the uptake of soluble Aβ1-42 toxic peptides in an actin polymerization-dependent mechanism. […] Cells were incubated for the indicated period of time, resuspended by trypsinization, collected, solubilised in lysis buffer and further analyzed by immunoblotting. […]

[1] = test system: human microglial cell line CHME; assay: Phagocytosis of beta-amyloid 1-42 peptide by CHME cells; format: cell-based; conditions: Pam3Cys lip peptide 5 ug per ml, FIG. 18
Procedure: Phagocytosis of beta-amyloid 1-42 peptide by the human microglial cell line CHME was observed after the addition of TLR2 agonist containing adjuvants Protollin and Pam3CysLip peptide. […] The synthetic peptide sequence of the Pam3Cys Lip peptide is described herein: Pam3Cys-SQ EPAAPAAEAT PAAEAP. Protollin was used at concentration 1 ug per ml based on the LPS content from Shigella flexneri. Pam3Cys lip peptide was used at concentration of 5 ug per ml of the pure tri-palmitoylated peptide.
Additionally, cells were imaged using 42 HiLyte 488 Fluo (Anaspec, Inc.) at 2 ug per ml in DMEM complete media (Invitrogen). Lysotracker red staining was performed and slides were mounted and co-stained with DAPI to show the nucleus (blue). […] Lysotracker red reagent was purchased from Invitrogen and used as manufacturer recommendations.

Aβ42 = Aβ42 specific immunogenicity in the amyloid deposition mouse model; format: in vivo, TASTPM mice; conditions: 12 injections of 10 ug, intramuscular route; FIG. 29
Procedure: Whole blood is collected from mice and centrifuged on a vacutainer blood collection tube containing gel for serum separation. Serum samples are stored at −80° C. Streptavidin-coated plates (Greiner Bio-One, Germany) are first coated with beta-amyloid (1-42)-Lys(Biotin)-NH2 peptide (Anaspec, Inc.) at 0.5 μg/mL, using 50 mM sodium carbonate buffer, overnight at 4° C. Plates are then washed using a 4 times using PBS/0.05% Tween 20. Super Block (ScyTek laboratories) is added to the plates and incubated at 37° C. for at least one hour. Serum samples and standard (anti Aβ42 antibody (6E10 antibody, Covance, Inc.) are serially diluted in the plates and incubated at 37° C. for 2 hours. After a wash step, diluted peroxidase AffiniPure goat anti-mouse IgG, Fcγ fragment specific (Jackson ImmunoResearch Laboratories Inc.) is added for 1 hour at 37° C. A last wash is performed before adding TMB substrate reagent (BD OptEIA™, BD Biosciences) for 30 min at RT. Immediately, plates are stopped using 2N sulfuric acid, and then read at 450 nm using SpectraMax microplate reader (Molecular Devices, Inc.).

TASTPM mice = assay: T-water maze test in TASTPM; format: in vivo; conditions: 12 weekly i.m. injections; FIG. 30
Procedure: To determine whether a TLR2 agonist will improve the cognitive impairment in TASTPM mice, the Pam3CysLip adjuvant fused to the Aβ1-6 peptide was injected 12 times at weekly basis using the intramuscular route and the memory was assessed using the T-water maze test. […] TASTPM mice have received one a week for a period of 12 weeks the following treatment: PBS or mice have received once a week for a period of 12 weeks the following treatment: PBS or of Pam3CysLip Aβ1-6 peptide.

PDAPP mice = conditions: immunization of young PDAPP mice; cited from earlier work

Compound: CCCCCCCCCCC[C@H](CC(=O)N[C@H]1[C@H](OC[C@H](NC(=O)C[C@@H](CCCCCCCCCCC)OC(=O)CCCCCCCCC)C(=O)O)O[C@H](CO)[C@@H](OP(=O)(O)O)[C@@H]1OC(=O)C[C@@H](CCCCCCCCCCC)OC(=O)CCCCCCCCC)OC(=O)CCCCCCCCC [CRX527]
- circulating monocytes numbers following injection (Lineage-CD11b+ monocytes; i.m. or i.p. routes, doses of b403, FIG. 9): Upregulation of circulating monocytes numbers
- behaviour as assessed by T water maze testing (APPSwe/PS1 mice): significant improvements in behaviour

Compound: C=C1[C@@H](C)[C@H]2[C@H](Cc3ccccc3)NC(=O)[C@]23[C@H](OC(C)=O)/C=C/[C@@](C)(O)C(=O)[C@@H](C)C/C=C/[C@H]3[C@@H]1O [cytochalasin D]
- effect on 2E7-increased cellular uptake of Aβ1-42 (BV2 microglia cells): inhibited

Compound: Pam3Cys-SQ EPAAPAAEAT PAAEAP (Pam3Cys-SQEPAAPAAEATPAAEAP) [Pam3CysLip peptide, TLR2 agonist, tri-palmitoylated peptide from Neisseria meningitidis strain 8047]
- phagocytosis ([1]; pre-incubation 18 hrs): 86 % of cells
- phagocytosis of Aβ1-42 by CHME ([1]; Protollin 1 ug per ml (LPS content), 18 hrs, vs PBS): higher amyloid phagocytic activity

Compound: Pam3Cys-SQ EPAAPAAEAT PAAEAPDAEFRH (Pam3Cys-SQEPAAPAAEATPAAEAPDAEFRH) [Pam3CysLip Aβ1-6 peptide]
- anti Aβ42 specific immunogenicity (Aβ42): High and specific anti Aβ42 specific immunogenicity
- right-left discrimination tests (T-water maze) vs PBS injected group (TASTPM mice): trend of improvement

Compound: QS21 [reference compound]
- activated Ly6C+ monocytes (Lineage-CD11b+ monocytes; single i.m. injection, 24 hrs, FIG. 19B): 75%
- number of monocytes, % of total peripheral white blood cells (Lineage-CD11b+ monocytes; single i.m. injection, after 24 hrs, QS21 5 μg, FIG. 19A): 9.1%

Compound: synthetic human Aβ1-42: synthetic human Aβ1-42 used to immunize PDAPP mice
- AD-like neuropathologies (PDAPP mice): reduce the extent and progression
